From ChEMBL document CHEMBL5029185, “Discovery of Novel Polycyclic Heterocyclic Derivatives from Evodiamine for the Potential Treatment of Triple-Negative Breast Cancer” (J Med Chem, 2021)
Activity calls are given as the source filed them. The rule behind the calls is not given here.

Legend:
MDA-MB-231 [1] = assay: Antiproliferative activity against human MDA-MB-231 cells assessed as inhibition rate at 100 uM incubated for 72 hrs by MTT assay; format: functional
MDA-MB-231 [2] = assay: Antiproliferative activity against human MDA-MB-231 cells assessed as inhibition rate at 1 uM incubated for 72 hrs by MTT assay; format: functional
MDA-MB-435 = assay: Antiproliferative activity against human MDA-MB-435 cells assessed as inhibition rate incubated for 72 hrs by MTT assay; format: functional, cell-based; conditions: MDA-MB-435, 72 h
4T1 = assay: Antiproliferative activity against mouse 4T1 cells assessed as inhibition rate incubated for 72 hrs by MTT assay; format: functional, cell-based; conditions: 4T1, 72 h
MCF7 = assay: Antiproliferative activity against human MCF7 cells assessed as inhibition rate incubated for 72 hrs by MTT assay; format: functional, cell-based; conditions: MCF7, 72 h
HepG2 = assay: Antiproliferative activity against human HepG2 cells assessed as inhibition rate incubated for 72 hrs by MTT assay; format: functional, cell-based; conditions: HepG2, 72 h
H22 = assay: Antiproliferative activity against mouse H22 cells assessed as inhibition rate incubated for 72 hrs by MTT assay; format: functional, cell-based; conditions: H22, 72 h
LoVo = assay: Antiproliferative activity against human LoVo cells assessed as inhibition rate incubated for 72 hrs by MTT assay; format: functional, cell-based
[3] = molecular target: T1, DNA topoisomerase 1 (Homo sapiens) (UniProt P11387); assay: Inhibition of topoisomerase 1 (unknown origin) assessed as relaxation of supercoiled plasmid pBR322 DNA at 50 uM incubated for 15 mins by agarose gel electrophoresis
T1 sequence (whole entry): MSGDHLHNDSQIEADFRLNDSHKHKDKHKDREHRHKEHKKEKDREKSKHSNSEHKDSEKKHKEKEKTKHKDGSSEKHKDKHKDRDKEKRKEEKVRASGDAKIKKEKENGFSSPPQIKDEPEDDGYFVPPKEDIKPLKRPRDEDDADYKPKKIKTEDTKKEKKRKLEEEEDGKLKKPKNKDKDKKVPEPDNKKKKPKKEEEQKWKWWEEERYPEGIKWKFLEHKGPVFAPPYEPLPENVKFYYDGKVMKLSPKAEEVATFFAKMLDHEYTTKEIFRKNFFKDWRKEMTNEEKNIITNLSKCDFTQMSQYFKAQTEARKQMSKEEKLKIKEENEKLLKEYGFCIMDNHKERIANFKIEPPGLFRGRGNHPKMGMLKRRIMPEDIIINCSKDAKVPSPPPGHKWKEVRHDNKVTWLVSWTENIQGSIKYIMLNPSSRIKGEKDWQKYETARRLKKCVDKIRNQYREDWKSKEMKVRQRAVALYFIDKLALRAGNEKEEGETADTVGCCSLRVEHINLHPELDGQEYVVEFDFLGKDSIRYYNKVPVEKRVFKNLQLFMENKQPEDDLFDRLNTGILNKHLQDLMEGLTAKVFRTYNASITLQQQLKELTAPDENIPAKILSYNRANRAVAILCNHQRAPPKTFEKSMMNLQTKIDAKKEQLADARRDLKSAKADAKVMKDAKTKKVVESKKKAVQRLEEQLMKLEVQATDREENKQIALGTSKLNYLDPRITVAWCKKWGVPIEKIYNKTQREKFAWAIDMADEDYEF

MDA-MB-231 [4] = assay: Antiproliferative activity against human MDA-MB-231 cells transfected with siRNA-Top1 assessed as cell viability by MTT assay; format: functional, cell-based
[5] = Ratio of IC50 for antiproliferative activity against human MDA-MB-231 cells transfected with siRNA-Top1 to IC50 for antiproliferative activity against human MDA-MB-231 cells transfected with siRNA-Ctrl assessed as cell viability by MTT assay; format: functional
MDA-MB-231 [6] = assay: Induction of ROS generation in human MDA-MB-231 cells by fluorescent dye […] based flow cytometry; format: functional, cell-based
MDA-MB-231 [7] = assay: Induction of mitochondrial membrane disruption in human MDA-MB-231 cells assessed as mitochondrial dysfunction at 0.2 uM measured after 48 hrs by JC-1 staining based flow cytometry (reference value: 3%); format: functional
MDA-MB-231 [8] = assay: Induction of mitochondrial membrane disruption in human MDA-MB-231 cells assessed as mitochondrial dysfunction at 0.4 uM measured after 48 hrs by JC-1 staining based flow cytometry (reference value: 3%); format: functional
MDA-MB-231 [9] = assay: Induction of apoptosis in human MDA-MB-231 cells assessed as increase in Bax expression at 0.1 to 0.4 uM measured after 48 hrs by Western blot analysis; format: functional, cell-based; conditions: dose 0.1-0.4 µM
MDA-MB-231 [10] = assay: Induction of apoptosis in human MDA-MB-231 cells assessed as increase in cleaved caspase-3 expression at 0.1 to 0.4 uM measured after 48 hrs by Western blot analysis; format: functional, cell-based; conditions: dose 0.1-0.4 µM
MDA-MB-231 [11] = assay: Induction of apoptosis in human MDA-MB-231 cells assessed as decrease in Bcl-2 expression at 0.1 to 0.4 uM measured after 48 hrs by Western blot analysis; format: functional, cell-based; conditions: dose 0.1-0.4 µM
MDA-MB-231 [12] = assay: Induction cell cycle arrest in human MDA-MB-231 cells assessed as accumulation at G1 phase at 0.2 uM measured after 48 hrs by PI staining based flow cytometry (reference value: 53.7%); format: functional
MDA-MB-231 [13] = assay: Induction cell cycle arrest in human MDA-MB-231 cells assessed as accumulation at S phase at 0.2 uM measured after 48 hrs by PI staining based flow cytometry (reference value: 36%); format: functional
MDA-MB-231 [14] = assay: Induction cell cycle arrest in human MDA-MB-231 cells assessed as accumulation at G1 phase at 0.4 uM measured after 48 hrs by PI staining based flow cytometry (reference value: 53.7%); format: functional
MDA-MB-231 [15] = assay: Induction cell cycle arrest in human MDA-MB-231 cells assessed as increase in p53 expression at 0.4 uM measured after 48 hrs by Western blot analysis; format: functional, cell-based
MDA-MB-231 [16] = assay: Induction cell cycle arrest in human MDA-MB-231 cells assessed as increase in p21 expression at 0.4 uM measured after 48 hrs by Western blot analysis; format: functional, cell-based
MDA-MB-231 [17] = assay: Inhibition of PI3K phosphorylation in human MDA-MB-231 cells at 0.4 uM measured after 48 hrs by Western blot analysis; format: cell-based
MDA-MB-231 [18] = assay: Effect on Akt expression in human MDA-MB-231 cells at 0.4 uM measured after 48 hrs by Western blot analysis; format: functional, cell-based
MDA-MB-231 [19] = assay: Inhibition of PI3K in human MDA-MB-231 cells assessed as Akt phosphorylation at 0.4 uM measured after 48 hrs by Western blot analysis; format: cell-based
MDA-MB-231 [20] = assay: Induction of apoptosis in human MDA-MB-231 cells assessed as increase in cleaved PARP level at 0.4 uM incubated for 48 hrs by Western blot analysis; format: functional, cell-based
MCF-10A = assay: cells; format: ADME, cell-based; conditions: Homo sapiens, 72 h
Description: Antiproliferative activity against human MCF-10A cells assessed as inhibition rate incubated for 72 hrs by MTT assay

Breast carcinoma cell = assay: Antitumour activity against human TNBC breast carcinoma cell tissue xenografted PDTX SCID mouse model assessed as reduction in cancer cell density at 5 to 20 mg/kg treated for 7 days; format: functional, organism-based; conditions: dose 5-20 mg/kg, time 7.0 day
[21] = Toxicity in PDTX SCID mouse model at 5 to 20 mg/kg measured upto 7 days; format: organism-based; conditions: in vivo, 168 h, dose 5-20 mg/kg, time <=7 day

O=C1c2cc(Cl)ccc2OC2c3oc4ccc(O)cc4c3CCN12 (centres undefined)
inhibition at 100 µM (MDA-MB-231 [1]): 95.8%
inhibition at 1 µM (MDA-MB-231 [2]): 82.4%
IC50 (MDA-MB-435): 420 nM
IC50 (4T1): 730 nM
IC50 (MCF7): 620 nM
IC50 (HepG2): 4650 nM
IC50 (H22): 1020 nM
IC50 (LoVo): 7310 nM
inhibition [3]: Active
IC50 (MDA-MB-231 [4]): 9700 nM
Ratio IC50 [5]: 12.7
Activity (MDA-MB-231 [6]): Active
Activity (MDA-MB-231 [7]): 18.5%
Activity (MDA-MB-231 [8]): 25%
Activity (MDA-MB-231 [9]): Active
Activity (MDA-MB-231 [10]): Active
Activity (MDA-MB-231 [11]): Active
Activity (MDA-MB-231 [12]): 72.3%
Activity (MDA-MB-231 [13]): 22.4%
Activity (MDA-MB-231 [14]): 70.2%
Activity (MDA-MB-231 [15]): Active
Activity (MDA-MB-231 [16]): Active
inhibition (MDA-MB-231 [17]): Active
Activity (MDA-MB-231 [18]): inactive
inhibition (MDA-MB-231 [19]): Active
Activity (MDA-MB-231 [20]): Active
IC50 (MCF-10A): 6760 nM
Activity (Breast carcinoma cell): Active
Activity [21]: Non-Toxic
